In article PMC10600239, “Selective MCL-1 inhibitor ABBV-467 is efficacious in tumor models but is associated with cardiac troponin increases in patients” (Communications Medicine, 2023):

Tested on: AMO-1 xenografts
Assay: AMO-1 xenograft efficacy (tumor volume, body weight)
Assay type: in vivo, mouse
Details: SCID-beige mice bearing AMO-1 (DSMZ) flank xenografts; IV, Q7Dx2, 6.25-25 mg/kg; 5% DMSO, 10% cremophor EL, 85% D5W
Protocol: All animal studies were conducted in accordance with the guidelines approved by the Institutional Animal Care and Use Committees of AbbVie. The research protocol was approved by In Vivo Pharmacology at AbbVie prior to study initiation but was not publicly registered or disclosed. Female C.B-17 SCID-beige mice (AMO-1, OPM-2, NCI-H929, and OCI-AML2 xenografts) and female NSG mice (MV4-11-Red.Fluc systemic) were purchased from Charles River Laboratories (Wilmington, MA). Animals were housed in a light cycle-controlled room with HEPA filtration at 22 °C. Animals had nesting and climbing cage topper as the primary environmental enrichment. Animals were inoculated subcutaneously in the right flank with 5 × 10^6 (AMO-1, OPM-2, NCI-H929, and OCI-AML2) or intravenous (IV) with 5 × 10^6 (MV4-11-Red.Fluc). The inoculation volume (0.2 mL) comprised a 50:50 mixture of cells in growth media and Matrigel (BD Biosciences) for subcutaneous injections and 100% phosphate-buffered saline for IV administration. All cell lines used in this publication were authenticated using IDEXX for STR profiling as well as their IMPACT and human IMPACT panels for pathogen screening. Electronic calipers were used to measure the length and width of each tumor 2 to 3 times per week. Tumor volume was estimated by applying the following equation: volume = length × width^2/2. All groups remained blinded during measurements and dosing; only veterinary staff were aware of group identity. When tumors reached approximately 200 mm^3, mice were randomized by match and distributed into treatment and control groups. All xenograft trials were conducted using 5 to 10 mice per group, and all mice were ear tagged and monitored individually throughout the studies. […] Tumor burden in the systemic MV4-11-Red.Fluc experiment was measured using an IVIS® spectrum from PerkinElmer by taking the total photon flux of the entire dorsal side of an individual mouse. […] A background control mouse that was tumor naive but received D-Luciferin was placed in the upper left corner of each image. The total flux from this animal was subtracted from the total flux of each animal present in the image.
For in vivo studies, maximal tumor growth inhibition (TGI) was calculated as the greatest treatment response using the following equation: Maximal TGI = (1 − mean tumor volume of the treated group/mean tumor volume of the vehicle control group) × 100. The tumor growth delay (TGD) percentage was determined as the percentage increase of the median time period for the treatment group to reach an arbitrary tumor volume of 1000 mm^3 relative to the vehicle control group. […] A power analysis was conducted using historical data to determine the number of animals required to yield significance of 0.05 at a 30% difference. […] Data from experiments in vivo were analyzed using the student’s t-test for TGI values and the Mann–Whitney U test for TGD using Excel and GraphPad Prism. Fisher’s exact test was used to probe significance of differences in response frequency.

## Cc1c(Cl)c2c(Cl)c(C)c1-c1c(-c3ccc(F)cc3)sc3ncnc(c13)O[C@@H](C(=O)O)Cc1cc(ccc1OCc1ccnc(-c3ccc(OC[C@H]4COCCO4)cc3)n1)OC[C@@H](CN1CCN(C)CC1)O2 [Compound A-1747745]
  Results: toxicity following iv injection: A-1747745 and A-1746463 showed lethal toxicity due to drug precipitate folowing iv injection.
